In US5393748A, “Methylenebisphosphonic acid derivatives” (priority 1990, dated 1995):

Experiments:
[1] = tested on: retinoid induced bone resorption in thyroparathyroidectomised rats; assay: Inhibition of retinoid induced bone resorption in thyroparathyroidectomised rats in vivo; set-up: species or system rat; details: 150 μmole/kg
Experimental: (§1) The parathyroid hormone stimulated bone resorption inhibition activity of the compounds in vitro in mouse calvaria, as well as the inhibition of retinoid induced bone resorption in thyroparathyroidectomised rats in vivo were determined (Reynolds & Dingle (Calc Tiss Res 1970; 4:339, and Trechsel et al. (J Clin Invest 1987; 80:1679)).

[2] = tested on: parathyroid hormone stimulated bone resorption in mouse calvaria; assay: Parathyroid hormone stimulated bone resorption inhibition in vitro in mouse calvaria; assay type: cell-based; details: 100 μm
Experimental: as §1

| SMILES | Inhibition of resorption (%), in vivo [1] [%] | Inhibition of resorption (%), in vitro [2] [%] |
| --- | --- | --- |
| O=P(O)(O)C(Cl)(Cl)P(=O)(O)O [Clodronate, reference compound] | 64 | – |
| CCOP(=O)(O)C(Nc1ccccn1)P(=O)(O)OCC (stereo not shown) [[[(2-Pyridinyl)amino]methylidene]bisphosphonic acid P,P'-diethyl ester] | 65 | 33 |
| CC(C)OP(=O)(O)C(Sc1ccccn1)P(=O)(O)O (stereo not shown) [[[(2-Pyridinyl)thio]methylidene]bisphosphonic Acid Monoisopropyl Ester] | 87 | 50 |
| O=P(O)(O)C(Nc1ccccn1)P(=O)(O)O [[[(2-pyridinyl)amino]methylidene]bisphosphonate, reference compound] | > 100 | 56 |
| CCOP(=O)(O)C(Nc1ncccc1C)P(=O)(O)OCC (stereo not shown) [[[(3-Methyl-2-pyridinyl)amino]methylidene) Bisphosphonic Acid P,P'-diethyl Ester] | 66 | 43 |
| Cc1cccnc1NC(P(=O)(O)O)P(=O)(O)O [[[(3-methyl 2-pyridinyl)amino]methylidene]bisphosphonate, reference compound] | – | 51 |
